For assay [1], the system named is L-929 cells. In words: Gene transfer efficiency (GFP-expressing cells/viable cell number, Cytell) after plasma introduction with inhibitor treatment. It counts as cell-based, mouse. Conditions: for gene introduction rate: concentration of inhibitor changed, normalized to control without inhibitor = 1 (FIGS. 8 to 11). On the procedure: (§1) Mouse fibroblast L-929 cells were seeded on a 96-well plate and were cultured for 24 h in CO2 incubator. A culture medium was removed by aspiration, and 100 μL of nocodazole (inhibitor) free-culture medium, 1 μM nocodazole-containing culture medium, or 100 μM nocodazole-containing culture medium was added to each well. The cells were cultured for 30 min in CO2 incubator. Next, the culture medium was removed by aspiration, and 6.0 μg/6.0 μL of pAcGFP1-N1 plasmid (selected molecule) solution was added dropwise to each well. The 96-well plate was set in plasma irradiation equipment and irradiated with plasma. Then, 100 μL of culture medium was immediately added, and the plate was returned to CO2 incubator and the cells were cultured for 24 h. The cells after the culturing were observed under a microscope.
A selected molecule was introduced in the same manner as in Example 1, except the point that in the inhibitor treatment step using 1 μM nocodazole, the treatment time was changed from 1 min to 120 min. […] The dashed line denotes the level in the case without adding nocodazole (control, left panel). The gene transfer efficiency (%) was calculated, using a Cytell (Cytell Cell Imaging System, manufactured by GE Healthcare, Inc.), as (the number of GFP-expressing cells/viable cell number).
A selected molecule was introduced in the same manner as in Example 1, except the point that the cells were treated with 5 μM or 15 μM chloroquine diphosphate and the plasma irradiation time was changed.
A selected molecule was introduced in the same manner as in Example 1, except the point that the concentration of nocodazole was changed, to determine cell viability and gene transfer efficiency. The plasma irradiation conditions were at a frequency of 20 kHz, a voltage of 15 kVpp, and an inter-electrode distance of 1 mm and for an irradiation time of 1 msec.
Cell viability and gene transfer efficiency were determined in the same manner as in Example 4, except the point that chloroquine was used as the inhibitor.
Cell viability and gene transfer efficiency were determined in the same manner as in Example 4, except the point that LY-294002 was used as the inhibitor.
Cell viability and gene transfer efficiency were determined in the same manner as in Example 4, except the point that wortmannin was used as the inhibitor.

In assay [2] the test system is L-929 cells. In words: GFP-expressing plasmid introduction by plasma irradiation after inhibitor treatment, microscope observation. It counts as cell-based, mouse. Conditions: 1 μM or 100 μM nocodazole, 30 min before plasma irradiation; compared to the case without nocodazole treatment (FIGS. 2 to 4). As for the experimental part:
as §1
In Example 1, the plasma irradiation conditions were at a frequency of 20 kHz, a voltage of 15 kVpp, and an inter-electrode distance of 1 mm and for an irradiation time of 1 msec or 5 msec.

Assay [3] deals with L-929 cells. The experiment in a line: PCR quantification of remaining plasmid gene at 24 h after introduction. In kind it is cell-based, mouse. As to conditions: 1 μM nocodazole, from Cq values (FIG. 15). On the procedure:
A selected molecule was introduced into mouse fibroblast L-929 cells in the same procedure as in Example 1. The resulting cells were cultured for 24 h. […] The cultured cells were collected from eight wells, and a High Pure PCR Template Preparation Kit (manufactured by Roche, Inc.) was used to recover and purify DNA. Next, 50 ng of the purified DNA was added to a PCR reaction kit SYBR Green I (Fast Start Essential DNA Green Master, manufactured by Roche, Inc.). Each resulting mixture was subjected to 40 cycles of amplification using a PCR machine (LightCycler 96 system, manufactured by Roche, Inc.). […] Each Cq value refers to a value determined by calculating a cycle number after amplification of gene sequence of interest has started and before a quantitative increase (linear increase) is initiated. The cycle number indicated by each arrow in FIG. 15(B) refers to the Cq value. When many copies of the gene sequence of interest are contained, there is a rapid increase in amplification and the Cq value is small. In addition, the inverse number of Cq value is proportional to the initial amount of the gene sequence of interest.

Assay [4] has as its system MG63 cells. The experiment in a line: GFP plasmid introduction by plasma with nocodazole treatment before irradiation, microscope observation. As to conditions: 1.0 μM or 0.1 μM nocodazole before plasma irradiation; vs without nocodazole treatment (FIG. 12). In kind it is cell-based, human. On the procedure:
as §1
An experiment was conducted in the same manner as in Experiment 1, except that cells (human osteosarcoma cells, MG63 cells) different from those in Example 1 were used. The concentration of nocodazole was 1 μM or 0.1 μM.

Assay [5] deals with MDCK cells. The experiment in a line: GFP plasmid introduction by plasma with nocodazole treatment after plasma irradiation, microscope observation. In kind it is cell-based, canine. As to conditions: 1.0 μM or 0.1 μM nocodazole for 30 min after plasma irradiation; vs without nocodazole treatment (FIG. 13). As for the experimental part:
(§2) By using cells (canine renal epithelial cell MDCK cells or human osteosarcoma cell MG63 cells) different from those in Example 1, gene transfer efficiency was examined when nocodazole treatment was performed after plasma irradiation. Specifically, the following protocol was used to conduct an experiment.
(§3) Canine renal epithelial cell MDCK cells or human osteosarcoma cell MG63 cells were each seeded on a 96-well plate and cultured for 24 h in CO2 incubator. The culture medium was removed by aspiration, and 6.0 μg/6.0 μL of pAcGFP1-N1 plasmid (selected molecule) solution was added dropwise to each well. The 96-well plate was set in plasma irradiation equipment and was irradiated with plasma. Then, 100 μL of nocodazole (inhibitor)-free culture medium, 1 μM nocodazole-containing culture medium, or 0.1 μM nocodazole-containing culture medium was added to each well. The cells were cultured for 30 min in CO2 incubator. After that, the culture medium was removed by aspiration and 100 μL of culture medium was added immediately. The plate was returned to CO2 incubator, and the cells were cultured for 24 h. The cells after the culturing were observed under a microscope. The plasma irradiation conditions were the same as in Example 1.

In assay [6] the test system is MG63 cells. The description is as above. In kind it is cell-based, human. As to conditions: 1.0 μM or 0.1 μM nocodazole for 30 min after plasma irradiation; vs without nocodazole treatment (FIG. 14). As for the experimental part:
as §2, §3

Experimental findings from patent US11898155B2, “Method for introducing molecule and composition containing inhibitor” (Pearl Kogyo Co., Ltd., priority 2017, dated 2024) are described below.

As to `O=c1cc(N2CCOCC2)oc2c(-c3ccccc3)cccc12` [LY-294002, 2-(4-morpholinyl)-8-phenyl-4H-1-benzopyran-4-one], in assay [1] (plasma irradiation 1 msec), the gene introduction rate entry is “significantly increased”.
Turning to `COC[C@H]1OC(=O)c2coc3c2[C@@]1(C)C1=C(C3=O)[C@@H]2CCC(=O)[C@@]2(C)C[C@H]1OC(C)=O` [wortmannin], the “inhibitor concentration at which the gene transfer efficiency was further markedly increased” value in assay [1] (plasma irradiation 1 msec, 30 min inhibitor treatment (FIGS. 8 to 11)) is at most 0.01 µM.
Turning to `CCN(CC)CCCC(C)Nc1ccnc2cc(Cl)ccc12` (stereo not drawn) [chloroquine], the gene transfer efficiency result in assay [1] (chloroquine 5 μM or 15 μM, plasma irradiation time 1 msec to 10 msec, vs cells without chloroquine treatment (std) (FIG. 7(B))) is recorded as “increased”. Further, in assay [1] (plasma irradiation 1 msec), the gene introduction rate entry is “significantly increased”.
Consider `COC(=O)Nc1nc2ccc(C(=O)c3cccs3)cc2[nH]1` [nocodazole], for which the “number of GFP-expressing cells” value is “increased” in assay [2], “increased” in assay [4], “increase” in assay [5] and “increase” in assay [6]. Besides, the gene transfer efficiency entry is given as “marked increase” in assay [1] (1 μM nocodazole, treatment time 1 min to 120 min, plasma irradiation time 1 msec, vs without nocodazole (FIG. 6(B))) and “markedly increased” in assay [1] (1 μM nocodazole, treatment time 1 min to 120 min, plasma irradiation time 5 msec, vs cells without nocodazole (FIG. 5(B))). For the same molecule, the gene introduction rate result in assay [1] (plasma irradiation 1 msec) is listed as “significantly increased”. In addition, in assay [3], the “amount of exogenous gene DNA remaining in cells relative to cells without nocodazole treatment” value is “about 1.44 times”.
